Assay results reported in ChEMBL document CHEMBL1154271, “Anti-tumor-promoting effects of 25-methoxyporicoic acid A and other triterpene acids from Poria cocos” (J Nat Prod, 2009).

Key:
HL-60 = assay: Cytotoxicity against human HL60 cells after 48 hrs by MTT assay; assay type: functional, cell-based; details: HL-60, 48 h
[1] = Cytotoxicity against human CRL1579 cells after 48 hrs by MTT assay; assay type: functional, cell-based
[2] = Cytotoxicity against human Raji cells assessed as cell viability at 1000 molar ratio; assay type: cell-based; details: read-out: INH
[3] = Inhibition of TPA-induced EBV early antigen activation in human Raji cells relative to TPA; assay type: cell-based, human gammaherpesvirus 4
Raji [4] = assay: Inhibition of TPA-induced EBV early antigen activation in human Raji cells at 100 molar relative to TPA; values are per cent of control; details: human gammaherpesvirus 4
Raji [5] = assay: Inhibition of TPA-induced EBV early antigen activation in human Raji cells at 500 molar relative to TPA; values are per cent of control; details: human gammaherpesvirus 4
Raji [6] = assay: Inhibition of TPA-induced EBV early antigen activation in human Raji cells at 1000 molar relative to TPA; values are per cent of control; details: human gammaherpesvirus 4
Raji [7] = assay: Inhibition of TPA-induced EBV early antigen activation in human Raji cells at 10 molar ratio relative to TPA; values are per cent of control; details: human gammaherpesvirus 4
Mus musculus [8] = species: Mus musculus; assay: Inhibition of DMBA-induced/TPA-promoted carcinogenesis in ICR mouse assessed as reduction of skin papillomas measured after 20 weeks relative to TPA; assay type: functional
Mus musculus [9] = species: Mus musculus; assay: Inhibition of DMBA-induced/TPA-promoted carcinogenesis in ICR mouse assessed as reduction of skin papillomas measured after 11 weeks relative to TPA; assay type: functional

| SMILES | IC50 (HL-60) [µM] | IC50 [1] [µM] | viability at 1000 molar ratio [2] [%] | IC50 [3] [molar ratio] | level, % of control (Raji [4]) [%] | level, % of control (Raji [5]) [%] | level, % of control (Raji [6]) [%] | level, % of control (Raji [7]) [%] | inhibition (INH) (Mus musculus [8]) [%] | inhibition (INH) (Mus musculus [9]) [%] |
| --- | --- | --- | --- | --- | --- | --- | --- | --- | --- | --- |
| C=C(C)[C@@H]1CC=C2C(=CC[C@]3(C)[C@@H]([C@@H](CCC(=C)C(C)(C)O)C(=O)O)[C@H](O)C[C@@]23C)[C@@]1(C)CCC(=O)OC [PORICOIC ACID DM] | > 100 | > 100 | – | – | – | – | – | – | – | – |
| C=C(C)[C@@H]1CCC2=C(CC[C@]3(C)[C@@H]([C@@H](CCC=C(C)C)C(=O)O)[C@H](O)C[C@@]23C)[C@@]1(C)CCC(=O)O [PORICOIC ACID G] | 32.6 | > 100 | – | – | – | – | – | – | – | – |
| C=C(CC[C@@H](C(=O)O)[C@H]1[C@H](O)C[C@@]2(C)C3=C(CC[C@]12C)[C@@](C)(CCC(=O)O)[C@H](C(=C)C)CC3)C(C)C [PORICOIC ACID H] | 28.4 | > 100 | – | – | – | – | – | – | – | – |
| C=C(CC[C@@H](C(=O)O)[C@H]1[C@H](O)C[C@@]2(C)C3=CC[C@H]4C(C)(C)[C@H](O)CC[C@]4(C)C3=CC[C@]12C)C(C)(C)O | 29.4 | 84 | – | – | – | – | – | – | – | – |
| C=C(CC[C@@H](C(=O)O)[C@H]1[C@H](O)C[C@@]2(C)C3=C(CC[C@]12C)[C@@]1(C)CCC(=O)C(C)(C)[C@@H]1CC3)C(C)C | > 100 | > 100 | 70 | 348 | 70.3 | 28.3 | 2.2 | 96.4 | – | – |
| C=C(CC[C@@H](C(=O)O)[C@H]1[C@H](O)C[C@@]2(C)C3=C(CC[C@]12C)[C@@]1(C)CCC(=O)C(C)(C)[C@@H]1CC3)C(C)(C)O | 84.7 | 28.7 | 70 | 299 | 72.2 | 36.1 | 0 | 96.1 | – | – |
| C=C(C)[C@@H]1CC=C2C(=CC[C@]3(C)[C@@H]([C@@H](CCC=C(C)C)C(=O)O)[C@H](O)C[C@@]23C)[C@@]1(C)CCC(=O)O [PORICOIC ACID B] | > 100 | > 100 | – | – | – | – | – | – | – | – |
| C=C(CC[C@@H](C(=O)O)[C@H]1[C@H](O)C[C@@]2(C)C3=CC[C@@H](C(=C)C)[C@](C)(CCC(=O)O)C3=CC[C@]12C)C(C)C [PORICOIC ACID A] | 38 | > 100 | – | – | – | – | – | – | – | – |
| CC(C)(O)c1ccc2c(c1)C(=O)C[C@H]1[C@](C)(C(=O)O)CCC[C@]21C | > 100 | > 100 | 60 | 238 | 69.1 | 19.5 | 0 | 93.4 | – | – |
| C=C(C)[C@@H]1CCC2=C(CC[C@]3(C)[C@@H]([C@@H](CCC=C(C)C)C(=O)O)[C@H](O)C[C@@]23C)[C@@]1(C)CCC(=O)OC [PORICOIC ACID GM] | – | – | 70 | 216 | 60.1 | 19.9 | 0 | 86.4 | – | – |
| C=C(C)[C@@H]1CC=C2C(=CC[C@]3(C)[C@@H]([C@@H](CCC(=C)C(C)(C)O)C(=O)O)CC[C@@]23C)[C@@]1(C)CCC(=O)O [25-HYDROXYPORICOIC ACID C] | 30.8 | 92.7 | 70 | 201 | 57.1 | 16.2 | 0 | 83.1 | – | – |
| C=C(CC[C@@H](C(=O)O)[C@H]1[C@H](O)C[C@@]2(C)C3=C(CC[C@]12C)[C@@](C)(CCC(=O)O)[C@H](C(=C)C)C=C3)C(C)C [6,7-DEHYDROPORICOIC ACID H] | > 100 | > 100 | 70 | 193 | 56 | 15.2 | 0 | 80.9 | – | – |
| C=C(CC[C@@H](C(=O)O)[C@H]1[C@H](O)C[C@@]2(C)[C@]34C=C[C@@]5(OO3)C(C)(C)[C@@H](O)CC[C@]5(C)C4=CC[C@]12C)C(C)C | > 100 | > 100 | – | – | – | – | – | – | – | – |
| C=C(C)[C@@H]1CC=C2C(=CC[C@]3(C)[C@@H]([C@@H](CCC(=C)C(C)(C)OC)C(=O)O)[C@H](O)C[C@@]23C)[C@@]1(C)CCC(=O)O [25-METHOXYPORICOIC ACID A] | > 100 | > 100 | 70 | 268 | 58.2 | 17.8 | 0 | 84.4 | 80 | 20 |
| C=C(CC[C@@H](C(=O)O)[C@H]1[C@H](O)C[C@@]2(C)C3=CC[C@@H](C(=C)C)[C@](C)(CCC(=O)OC)C3=CC[C@]12C)C(C)C [PORICOIC ACID AM] | 15.9 | 88.9 | – | – | – | – | – | – | – | – |
| C=C(C)[C@@H]1CC=C2C(=CC[C@]3(C)[C@@H]([C@@H](CCC(=C)C(C)(O)CO)C(=O)O)[C@H](O)C[C@@]23C)[C@@]1(C)CCC(=O)OC (stereo partly specified) | 94.6 | 98.4 | 70 | 187 | 55.3 | 14.1 | 0 | 80.2 | – | – |
| CC1=C(/C=C/C(C)=C/C=C/C(C)=C/C=C/C=C(C)/C=C/C=C(C)/C=C/C2=C(C)CCCC2(C)C)C(C)(C)CCC1 [BETA CAROTENE] | – | – | – | 397 | 82.1 | 34.2 | 8.6 | 100 | – | – |
| C=C(CC[C@@H](C(=O)O)[C@H]1[C@H](O)C[C@@]2(C)C3=C(CC[C@]12C)[C@@](C)(CCC(=O)OC)[C@H](C(=C)C)CC3)C(C)C [PORICOIC ACID HM] | – | – | 70 | 219 | 61.3 | 20.3 | 0 | 87.5 | – | – |
